{"source": "patent US12492195B2", "about": "“Preparation method for and crystal form of 3-aryloxy-3-five-membered heteroaryl-propylamine compound” (Zhangzhou Pien Tze Huang Pharmaceutical Co., Ltd., priority 2020, dated 2025)", "key": {"TRPA1": {"target": "T1, TRPA1 (Mus musculus, UniProt Q8BLA8)", "T1 construct": "expressed in transfected cells", "T1 sequence (Q8BLA8 whole entry)": "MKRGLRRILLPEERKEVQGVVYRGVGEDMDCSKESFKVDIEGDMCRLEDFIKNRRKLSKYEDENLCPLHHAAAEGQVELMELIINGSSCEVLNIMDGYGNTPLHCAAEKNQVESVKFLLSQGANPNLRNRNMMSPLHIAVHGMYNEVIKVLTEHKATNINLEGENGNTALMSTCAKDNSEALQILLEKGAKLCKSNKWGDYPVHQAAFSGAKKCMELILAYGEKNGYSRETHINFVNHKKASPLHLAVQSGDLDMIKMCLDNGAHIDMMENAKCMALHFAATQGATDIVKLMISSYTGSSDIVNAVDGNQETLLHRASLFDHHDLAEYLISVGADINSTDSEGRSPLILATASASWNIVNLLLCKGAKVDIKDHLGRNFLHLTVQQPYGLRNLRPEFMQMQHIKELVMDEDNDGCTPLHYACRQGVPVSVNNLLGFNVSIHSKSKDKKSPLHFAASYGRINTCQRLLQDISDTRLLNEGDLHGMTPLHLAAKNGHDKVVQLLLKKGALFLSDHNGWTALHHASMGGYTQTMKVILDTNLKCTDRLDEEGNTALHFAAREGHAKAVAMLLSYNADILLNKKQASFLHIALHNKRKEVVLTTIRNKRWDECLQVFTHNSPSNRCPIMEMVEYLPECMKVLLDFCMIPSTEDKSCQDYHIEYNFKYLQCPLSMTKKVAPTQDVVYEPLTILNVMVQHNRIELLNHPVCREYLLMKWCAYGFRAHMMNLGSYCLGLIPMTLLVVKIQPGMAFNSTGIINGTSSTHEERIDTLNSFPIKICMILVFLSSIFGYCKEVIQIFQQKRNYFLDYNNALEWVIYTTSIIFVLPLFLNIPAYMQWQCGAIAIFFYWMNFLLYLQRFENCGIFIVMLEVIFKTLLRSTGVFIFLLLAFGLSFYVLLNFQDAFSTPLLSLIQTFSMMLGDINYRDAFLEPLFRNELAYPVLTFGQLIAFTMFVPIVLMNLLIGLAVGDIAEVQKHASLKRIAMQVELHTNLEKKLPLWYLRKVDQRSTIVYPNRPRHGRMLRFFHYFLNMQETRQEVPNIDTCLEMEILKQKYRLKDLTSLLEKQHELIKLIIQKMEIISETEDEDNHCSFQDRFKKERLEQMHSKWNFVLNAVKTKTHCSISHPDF", "test": "IonWorks Barracuda (IWB) automated patch clamp detection of TRPA1 inhibitory activity", "type": "cell-based", "description": "IonWorks Barracuda (IWB) automated patch clamp detection was used as test method: HEK293 cells stably expressing TRPA1 were placed in the T175 culture flask with DMEM medium containing 15 μg/mL Blasticidin S HCl, 200 μg/mL Hygromycin B and 10% FBS, and cultured in an incubator in 5% CO2 at 37° C. When the cell density reached about 80%, the culture medium was removed, the residue was rinsed once with phosphate buffered saline (PBS) without calcium and magnesium. 3 mL of Trypsin was added to digest for 2 min, 7 mL of culture medium was added to terminate the digestion. The cells were collected to 15 mL centrifuge tube and centrifuged at 800 rpm for 3 min. After the supernatant was removed, the cells were added to appropriate volume of extracellular fluid for re-suspending, and the cell density was controlled at 2-3×10^6/mL for IWB experiment. The formulation of extracellular fluid (in mM) was 140 NaCl, 5 KCl, 1 MgCl2, 10 HEPES, 0.5 EGTA, 10 Glucose (pH 7.4); the formulation of intracellular fluid (in mM) was 140 CsCl, 10 HEPES, 5 EGTA, 0.1 CaCl2), 1 MgCl2 (pH 7.2). 28 mg/mL of amphotericin B was freshly prepared with DMSO on the day of experiment, and then final concentration of 0.1 mg/mL of that was prepared with intracellular fluid.\nPopulation patch clamp (PPC) plate was used in IWB experiment. The entire detection process was automatically carried out by the instrument. […]\nThe record of data and the export of current amplitude measurement were carried out by IWB software (version 2.5.3, Molecular Devices Corporation. Union City, CA). No statistics was recorded for wells with sealing impedance lower than 20 MΩ. […] TRPA1 current amplitude was measured at ±100 mV. […] The dose-effect curve of compounds and IC50 were fitted and calculated by GraphPad Prism 5.02 (GraphPad Software, San Diego, CA)."}, "mice": {"tested_on": "mice", "test": "ICS model in mice (fibromyalgia), mechanical hyperalgesia test", "type": "in vivo", "details": "10 mg/kg oral", "description": "Male C57BUJ6 mice weighing 18-22 g at the beginning of experiment were selected. Each cage had 4 mice which were allowed to feed and drink water freely. Each experimental group had 12 mice, and the experimental mice were labeled by tail labeling method.\nDay 0: At 4:30 pm, the mice were put in a plexiglass box with stainless steel mesh, and then the plexiglass box was put into a cold storage (4±2° C.) overnight. The mice were allowed to feed freely and agar was used to replace water.\nDay 1: At 10:00 am, the mice were delivered to room temperature (24±2° C.) environment for 30 min, and then the mice were delivered to the cold storage for 30 min. The above steps were repeated until 4:30 pm, and the mice were put into the cold storage overnight.\nThe compounds were administered orally according to the schedule of experiment, and the dosage was 10 mg/kg.\nOn the fourth day after modeling, the pre-administration mechanical hyperalgesia test was performed on the animals. Animals with PWT value greater than 0.5 g were excluded and were not used for experiments. On the fifth day after modeling, the animals were tested for mechanical hyperalgesia test at 0.5 h, 1 h, and 2 h after the administration of compounds.\nThe mice were individually placed in a plexiglass box with a grid on the bottom of the box to ensure that the mice paw could be tested. The mice were allowed to adapt for 15 min before the test. After the adaptation was completed, the test fiber was used to test at the center of the left hind paw of mice. The test fiber comprised 8 test strengths: 2.36(0.02 g), 2.44(0.04 g), 2.83(0.07 g), 3.22(0.16 g), 3.61(0.4 g), 3.84(0.6 g), 4.08(1 g), and 4.17(1.4 g). During the test, the test fiber was pressed vertically against the skin and forced to bend for 6-8 s with a 5 s interval between each test. During the test, rapid withdrawal of animal paw was recorded as pain response. When the test fiber was removed from animal skin, the withdrawal of animal paw was also recorded as pain response. If animal moved or walked, the pain response was not recorded, and the test was repeated. In the test. 3.22(0.16 g) was used firstly. […] The maximum strength of tested fiber was 4.17(1.4 g).\nMechanical hyperalgesia was calculated by using the following formula: 50% response threshold (g)=(10^(Xf+k))/10,000; • Xf=the final test fiber value used in the test; • k=table value (Chaplan et al., 1994, page 62); • =mean difference 5. Data Collection and Analysis"}, "ICR mice": {"tested_on": "ICR mice", "test": "acetic acid writhing pain model in mice", "type": "in vivo", "details": "for frequency of writhing response within 30 min: acetic acid 1 h after administration", "description": "Male ICR mice, weighed 22-25 g, were fasted but allowed to drink water freely for 2 h before administration. All ICR mice were weighed and grouped randomly, and the number of animals in each group was greater than 10. […] […] The drug was administrated intragastrically based on the weight of mice. 1.5% acetic acid solution (0.1 ml/10 g) was injected intraperitoneally 1 hour after administration, and the frequency of visceral pain in each group of mice within 30 min was observed. When concave abdomen, stretched trunk and hind paw, and high buttocks appeared, one number point was recorded. Finally, the number of appearance of the above phenomenon was counted within 30 minutes."}}, "data": [{"compound": "CNCC[C@H](Oc1cccc2ccccc12)c1cccs1", "note": "[Duloxetine (S configuration), Duloxetine, reference compound]", "values": [{"measurement": "IC50", "setting": "TRPA1; HEK293 cells stably expressing TRPA1, AITC-induced current", "result": "10 to 20", "unit": "µM"}, {"measurement": "PWT(g) Mean ± SD", "setting": "mice; 0.5 h after administration", "result": "0.416 ± 0.140", "unit": "g"}, {"measurement": "PWT(g) Mean ± SD", "setting": "mice; 1 h after administration", "result": "0.648 ± 0.155", "unit": "g"}, {"measurement": "PWT(g) Mean ± SD", "setting": "mice; 2 h after administration", "result": "0.530 ± 0.235", "unit": "g"}, {"measurement": "frequency of writhing response within 30 min", "setting": "ICR mice; 10 mg/kg intragastric", "result": 27, "unit": "times"}, {"measurement": "frequency of writhing response within 30 min", "setting": "ICR mice; 20 mg/kg intragastric", "result": 21, "unit": "times"}]}, {"compound": "CNCC[C@H](Oc1cccc2ccoc12)c1cccs1", "note": "[IC-1, (S)-3-(Benzofuran-7-yloxy)-N-methyl-3-(thiophen-2-yl)propan-1-amine]", "values": [{"measurement": "PWT(g) Mean ± SD", "setting": "mice; 0.5 h after administration", "result": "0.482 ± 0.199", "unit": "g"}, {"measurement": "PWT(g) Mean ± SD", "setting": "mice; 1 h after administration", "result": "0.773 ± 0.261", "unit": "g"}, {"measurement": "PWT(g) Mean ± SD", "setting": "mice; 2 h after administration", "result": "0.607 ± 0.160", "unit": "g"}, {"measurement": "frequency of writhing response within 30 min", "setting": "ICR mice; 5 mg/kg intragastric", "result": 20, "unit": "times"}, {"measurement": "frequency of writhing response within 30 min", "setting": "ICR mice; 10 mg/kg intragastric", "result": 17, "unit": "times"}, {"measurement": "half effective dose (EDso)", "setting": "ICR mice; acetic acid writhing, intragastric", "result": "less than 5 mg/kg"}]}, {"compound": "CNCC[C@H](Oc1cccc2c1CCC2)c1cccs1", "note": "[IC-10]", "values": [{"measurement": "activity ratio, IC50 of compound C1/IC50 of compound IC-10", "setting": "TRPA1", "result": "about 2.5 times"}]}]}
